Laboratory results from patent US20230398130A1, “METHODS AND COMPOSITIONS FOR DIFFERENTIATING STEM CELLS” (Massachusetts Institute of Technology, priority 2020, published 2023).

Tests used:
ISC-enriched organoids [1] = experiment: Primary screen, 384-well 2.5-D organoid differentiation (ENR+CD, 6 days): basal lysozyme secretion (LYZ.NS); assay type: cell-based, murine; settings: for Dose.FC.LYZ.NS: FC vs plate median; for Dose.FC.LYZ.NS (log 2 fold change, basal lysozyme secretion): vs plate median; for SSMD.LYZ.NS: strictly standardized mean difference
Source text: (§1) High-throughput screening.

ISC-enriched organoids [2] = experiment: Primary screen, 384-well 2.5-D organoid differentiation (ENR+CD, 6 days): carbachol-induced lysozyme secretion (LYZ.S); assay type: cell-based, murine; settings: for Dose.FC.LYZ.S / Z.LYZ.S / SSMD.LYZ.S: primary screen; for Dose.FC.LYZ.S: FC vs plate median; for Dose.FC.LYZ.S (log 2 fold change, carbachol-induced lysozyme secretion): vs plate median; for Z.LYZ.S: standard z score; for SSMD.LYZ.S: strictly standardized mean difference
Source text: as §1

ISC-enriched organoids [3] = experiment: Primary screen, 384-well 2.5-D organoid differentiation (ENR+CD, 6 days, Target Selective Inhibitor Library, vs whole-plate median): ATP (CellTiter-Glo 3D, CTG); settings: for Dose.FC.CTG: FC vs plate median; for Dose.FC.CTG (log 2 fold change, ATP): vs plate median; for SSMD.CTG: strictly standardized mean difference
[4] = Dose 0.08 uM, standard z score of FC
[5] = Dose 0.40 uM, standard z score of FC
[6] = Dose 2.00 uM, standard z score of FC
[7] = Dose 10.00 uM, standard z score of FC
[8] = Dose 0.08 uM, primary screen, standard z score
[9] = Dose 0.40 uM, primary screen, standard z score
[10] = Dose 2.00 uM, primary screen, standard z score
[11] = Dose 10.00 uM, primary screen, standard z score
[12] = primary screen, 1st of the 4 dose lines of the treatment (dose not given)
[13] = primary screen, 2nd of the 4 dose lines of the treatment (dose not given)
[14] = primary screen, 3rd of the 4 dose lines of the treatment (dose not given)
[15] = primary screen, 4th of the 4 dose lines of the treatment (dose not given)
[16] = 1st of the 4 dose lines of the treatment (dose not given)
[17] = 2nd of the 4 dose lines of the treatment (dose not given)
[18] = 3rd of the 4 dose lines of the treatment (dose not given)
[19] = 4th of the 4 dose lines of the treatment (dose not given)

Row | Structure (SMILES) | Dose.FC.LYZ.NS (ISC-enriched organoids [1]; Dose 0.08 uM, primary screen) [log 2 fold change] | Dose.FC.LYZ.NS (ISC-enriched organoids [1]; Dose 0.40 uM, primary screen) [log 2 fold change] | Dose.FC.LYZ.NS (ISC-enriched organoids [1]; Dose 2.00 uM, primary screen) [log 2 fold change] | Dose.FC.LYZ.NS (ISC-enriched organoids [1]; Dose 10.00 uM, primary screen) [log 2 fold change] | Dose.FC.LYZ.S (ISC-enriched organoids [2]; Dose 0.08 uM) [log 2 fold change] | Dose.FC.LYZ.S (ISC-enriched organoids [2]; Dose 0.40 uM) [log 2 fold change] | Dose.FC.LYZ.S (ISC-enriched organoids [2]; Dose 2.00 uM) [log 2 fold change] | Dose.FC.LYZ.S (ISC-enriched organoids [2]; Dose 10.00 uM) [log 2 fold change] | Dose.FC.CTG (ISC-enriched organoids [3]; Dose 0.08 uM, primary screen) [log 2 fold change] | Dose.FC.CTG (ISC-enriched organoids [3]; Dose 0.40 uM, primary screen) [log 2 fold change] | Dose.FC.CTG (ISC-enriched organoids [3]; Dose 2.00 uM, primary screen) [log 2 fold change] | Dose.FC.CTG (ISC-enriched organoids [3]; Dose 10.00 uM, primary screen) [log 2 fold change] | Z.LYZ.NS (ISC-enriched organoids [1]; [8]) | Z.LYZ.NS (ISC-enriched organoids [1]; [9]) | Z.LYZ.NS (ISC-enriched organoids [1]; [10]) | Z.LYZ.NS (ISC-enriched organoids [1]; [11]) | Z.CTG (ISC-enriched organoids [3]; [8]) | Z.CTG (ISC-enriched organoids [3]; [9]) | Z.CTG (ISC-enriched organoids [3]; [10]) | Z.CTG (ISC-enriched organoids [3]; [11]) | also measured
1 | Cc1cnc(-c2cc(N3CCN(C(=O)CCS(C)(=O)=O)CC3)ncc2Cl)c(C)c1 [PF-5274857] | 0.078 | −0.029 | 0.011 | 0.074 | 0.187 | −0.034 | 0.042 | 0.076 | −0.101 | −0.040 | 0.055 | −0.076 |  |  |  |  |  |  |  |  | Z.LYZ.NS (ISC-enriched organoids [1]; [4]): 0.683; Z.LYZ.NS (ISC-enriched organoids [1]; [5]): −0.256; Z.LYZ.NS (ISC-enriched organoids [1]; [6]): 0.094; Z.LYZ.NS (ISC-enriched organoids [1]; [7]): 0.642; Z.CTG (ISC-enriched organoids [3]; [4]): −0.242; Z.CTG (ISC-enriched organoids [3]; [5]): −0.096; Z.CTG (ISC-enriched organoids [3]; [6]): 0.131; Z.CTG (ISC-enriched organoids [3]; [7]): −0.183
2 | Cl.O=C(O)Cc1cccc(OCCCN(Cc2cccc(C(F)(F)F)c2Cl)CC(c2ccccc2)c2ccccc2)c1 [GW3965 HCl] | 0.059 | 0.002 | 0.077 | −0.009 | 0.091 | 0.074 | 0.179 | −0.047 | 0.138 | 0.201 | 0.229 | −0.078 | 0.516 | 0.013 | 0.673 | −0.080 | 0.330 | 0.481 | 0.546 | −0.186 | 
3 | c1ccc(NCc2ccc(CNc3ccccn3)cc2)nc1 [WZ811] |  |  |  |  |  |  |  |  |  |  |  |  |  |  |  |  |  |  |  |  | Z.LYZ.NS (standard z score) (ISC-enriched organoids [1]; dose 0.08 uM): 1.337; Dose.FC.LYZ.NS (log 2 fold change, basal lysozyme secretion) (ISC-enriched organoids [1]; dose 0.08 uM): 0.154; Z.LYZ.NS (standard z score) (ISC-enriched organoids [1]; dose 0.40 uM): 0.162; Dose.FC.LYZ.NS (log 2 fold change, basal lysozyme secretion) (ISC-enriched organoids [1]; dose 0.40 uM): 0.019; Z.LYZ.NS (standard z score) (ISC-enriched organoids [1]; dose 2.00 uM): 0.815; Dose.FC.LYZ.NS (log 2 fold change, basal lysozyme secretion) (ISC-enriched organoids [1]; dose 2.00 uM): 0.094; Z.LYZ.NS (standard z score) (ISC-enriched organoids [1]; dose 10.00 uM): 0.045; Dose.FC.LYZ.NS (log 2 fold change, basal lysozyme secretion) (ISC-enriched organoids [1]; dose 10.00 uM): 0.005; Dose.FC.LYZ.S (log 2 fold change, carbachol-induced lysozyme secretion) (ISC-enriched organoids [2]; dose 0.08 uM): 0.296; Dose.FC.LYZ.S (log 2 fold change, carbachol-induced lysozyme secretion) (ISC-enriched organoids [2]; dose 0.40 uM): 0.007; Dose.FC.LYZ.S (log 2 fold change, carbachol-induced lysozyme secretion) (ISC-enriched organoids [2]; dose 2.00 uM): 0.074; Dose.FC.LYZ.S (log 2 fold change, carbachol-induced lysozyme secretion) (ISC-enriched organoids [2]; dose 10.00 uM): 0.019; Z.CTG (standard z score) (ISC-enriched organoids [3]; dose 0.08 uM): 0.334; Dose.FC.CTG (log 2 fold change, ATP) (ISC-enriched organoids [3]; dose 0.08 uM): 0.140; Z.CTG (standard z score) (ISC-enriched organoids [3]; dose 0.40 uM): −0.082; Dose.FC.CTG (log 2 fold change, ATP) (ISC-enriched organoids [3]; dose 0.40 uM): −0.034; Z.CTG (standard z score) (ISC-enriched organoids [3]; dose 2.00 uM): 0.184; Dose.FC.CTG (log 2 fold change, ATP) (ISC-enriched organoids [3]; dose 2.00 uM): 0.077; Z.CTG (standard z score) (ISC-enriched organoids [3]; dose 10.00 uM): 0.104; Dose.FC.CTG (log 2 fold change, ATP) (ISC-enriched organoids [3]; dose 10.00 uM): 0.044
4 | Cc1noc(-c2ccc(CSCCC(=O)O)cc2)c1NC(=O)OC(C)c1ccccc1Cl (stereo not drawn) [Ki16425] | 0.001 | 0.117 | −0.008 | −0.038 | 0.022 | 0.114 | −0.021 | −0.071 | −0.051 | −0.002 | −0.078 | −0.165 | 0.005 | 1.017 | −0.069 | −0.327 | −0.121 | −0.005 | −0.185 | −0.394 | SSMD.LYZ.NS (ISC-enriched organoids [1]; [12]): 0.006; SSMD.LYZ.NS (ISC-enriched organoids [1]; [13]): 0.483; SSMD.LYZ.NS (ISC-enriched organoids [1]; [14]): −0.072; SSMD.LYZ.NS (ISC-enriched organoids [1]; [15]): −0.246; Z.LYZ.S (ISC-enriched organoids [2]; [16]): 0.142; Z.LYZ.S (ISC-enriched organoids [2]; [17]): 0.739; Z.LYZ.S (ISC-enriched organoids [2]; [18]): −0.135; Z.LYZ.S (ISC-enriched organoids [2]; [19]): −0.459; SSMD.LYZ.S (ISC-enriched organoids [2]; [16]): 0.130; SSMD.LYZ.S (ISC-enriched organoids [2]; [17]): 0.421; SSMD.LYZ.S (ISC-enriched organoids [2]; [18]): −0.133; SSMD.LYZ.S (ISC-enriched organoids [2]; [19]): −0.394; SSMD.CTG (ISC-enriched organoids [3]; [12]): −0.145; SSMD.CTG (ISC-enriched organoids [3]; [13]): −0.008; SSMD.CTG (ISC-enriched organoids [3]; [14]): −0.226; SSMD.CTG (ISC-enriched organoids [3]; [15]): −0.527
